Data published in patent US11795152B2, “Crystal form of tafamidis and preparation method therefor and use thereof” (CRYSTAL PHARMACEUTICAL (SUZHOU) CO., LTD., priority 2019, dated 2023).

How the values were obtained:
Type in all cases: physicochemical
[1] = Dissolution profile of tablets in pH6.8 PBS+1% Tween 80; conditions: tablet 61 mg, paddle 75 rpm, 37° C.
Experimental: The cumulative dissolution was measured at different time in pH6.8 PBS+1% Tween 80 and pH6.8 PBS+3% Tween 80. The dissolution results are presented in Table 24 (FIG. 23) and Table 25 (FIG. 24).
The cumulative dissolution was measured at different time in pH6.8 PBS+1% Tween 80.

[2] = Stability of drug substance on storage (XRPD, HPLC purity); conditions: for chemical purity during storage: drug substance
Source text: Crystalline form and chemical impurity were checked by XRPD and HPLC, respectively.
Crystalline form and purity were checked by XRPD and HPLC, respectively.

[3] = Hygroscopicity by dynamic vapor sorption (DVS); conditions: 80% RH, 25° C., DVS
Experimental: Dynamic Vapor Sorption (DVS) is measured via a SMS (Surface Measurement Systems Ltd.) intrinsic DVS instrument. Its control software is DVS-Intrinsic control software. Typical parameters for DVS tests are as follows:
Gas and flow rate: N2, 200 mL/min
RH range: 0% RH to 95% RH
The weight gains at each relative humidity were recorded in a cycle of 0-95%-0 RH. The XRPD patterns were collected before and after the DVS test and depicted in FIG. 11.
Description and definition of hygroscopicity (general notice 9103 drug hygroscopicity test guidelines in 2015 edition of Chinese Pharmacopoeia, test at 25° C.+/−1° C., 80% RH. The definition of hygroscopicity in the 9th European Pharmacopoeia 5.11 is in consistent with the Chinese Pharmacopoeia.). • deliquescent: sufficient water is absorbed to form a solution. • very hygroscopic: increase in mass is equal to or greater than 15 percent. • hygroscopic: increase in mass is less than 15 percent and equal to or greater than 2 percent. • slightly hygroscopic: increase in mass is less than 2 percent and equal to or greater than 0.2 percent. • non hygroscopic or almost non hygroscopic: Increase in mass is less than 0.2%.
The weight gains at each relative humidity were recorded in a cycle of 0-95%-0RH. The XRPD patterns were collected before and after the DVS test and depicted in FIG. 22. […] Form CSVI is slightly hygroscopic.
The weight gains at each relative humidity were recorded in a cycle of 0-95%-0RH. The XRPD patterns were collected before and after the DVS test and depicted in FIG. 31.

[4] = Stability of Form CSVII drug product on storage; conditions: 30° C./60% RH
[5] = Compressibility (manual tablet press, tensile strength); conditions: 80 mg, φ6 mm round tooling, 10 KN
Experimental: An ENERPAC manual tablet press was used for tableting. […] Diameter (D) and thickness (L) were tested with a caliper. Hardness (H) was tested with an intelligent tablet hardness tester. Tensile strength of the powder was calculated with the following formula: T=2H/πDL*9.8. Under a certain force, the greater the tensile strength, the better the compressibility.
Diameter (D) and thickness (L) were tested with a caliper. Hardness (H) was tested with an intelligent tablet hardness tester. Tensile strength of the powder was calculated with the following formula: T=2H/πDL*9.8. Under a certain force, the greater the tensile strength, the better the compressibility.

[6] = Adhesiveness (material sticking to the punch); conditions: 30 mg, φ8 mm round tooling, 10 KN held for 30 s
Experimental: The punch was weighed and amount of material sticking to the punch was calculated. The compression was repeated twice and the cumulative amount, maximum amount and average amount of material sticking to the punch during the compression were recorded.

[7] = 40° C./75% RH, Sealed, 3 months
[8] = 60° C./75% RH, Sealed, 2 months

- Cumulative drug release in pH 6.8 PBS + 1% Tween 80 (%) ([1]; 0 min): 0.0%
- Cumulative drug release in pH 6.8 PBS + 1% Tween 80 (%) ([1]; 5 min): 9.3%
- Cumulative drug release in pH 6.8 PBS + 1% Tween 80 (%) ([1]; 10 min): 15.2%
- Cumulative drug release in pH 6.8 PBS + 1% Tween 80 (%) ([1]; 15 min): 19.7%
- Cumulative drug release in pH 6.8 PBS + 1% Tween 80 (%) ([1]; 20 min): 23.5%
- Cumulative drug release in pH 6.8 PBS + 1% Tween 80 (%) ([1]; 30 min): 29.8%
- Cumulative drug release in pH 6.8 PBS + 1% Tween 80 (%) ([1]; 45 min): 37.4%
- Cumulative drug release in pH 6.8 PBS + 1% Tween 80 (%) ([1]; 60 min): 43.7%
- Cumulative drug release in pH 6.8 PBS + 1% Tween 80 (%) ([1]; 90 min): 52.8%
- Cumulative drug release in pH 6.8 PBS + 1% Tween 80 (%) ([1]; 120 min): 60.1%
- Cumulative drug release in pH 6.8 PBS + 1% Tween 80 (%) ([1]; 150 min): 68.3%
- Purity ([2]; 25° C./60% RH, Open, 3 months): 99.92%
- Solid Form ([2]; 25° C./60% RH, Open, 3 months): Form CSVII
- Purity ([2]; 40° C./75% RH, Open, 3 months): 99.92%
- Solid Form ([2]; 40° C./75% RH, Open, 3 months): Form CSVII
- Purity [2, 7]: 99.92%
- Solid Form [2, 7]: Form CSVII
- Purity [2, 8]: 99.93%
- Solid Form [2, 8]: Form CSVII
- Purity ([2]; Initial): 99.93%
- Solid Form ([2]; Initial): Form CSVII
- chemical purity during storage ([2]; 25° C./60% RH): above 99.9%
- chemical purity during storage ([2]; 40° C./75% RH and 60° C./75% RH): above 99.9%
- Weight gain [3]: 0.04%
- time for which crystalline state of drug product doesn't change [4]: at least three months
- Hardness ([5]; 24 hours recovery): 7.45 kgf
- Tensile strength ([5]; T=2H/πDL*9.8): 4.02 MPa
- Average amount (mg) of material sticking to the punch [6]: 0.200 mg
Structure (SMILES): O=C(O)CCCCC(=O)O.O=C(O)c1ccc2nc(-c3cc(Cl)cc(Cl)c3)oc2c1.O=C(O)c1ccc2nc(-c3cc(Cl)cc(Cl)c3)oc2c1 [Form CSVII]
